Measured values as given in PMC5218480 (PLoS ONE, 2017).

System: MV-4-11 cells
Test: Gene expression microarray analysis (Affymetrix PrimeView) and GSEA
Format: cell-based, human
Parameters: RFU PODN (11730768_x_at) / Fold change /veh PODN (11730768_x_at) / RFU LINC00158 (11744669_a_at) / Fold change /veh LINC00158 (11744669_a_at) / RFU DUSP10 (11751237_a_at) / Fold change /veh DUSP10 (11751237_a_at) / RFU ID3 (11757404_x_at) / Fold change /veh ID3 (11757404_x_at) / RFU PLEKHG5 (11737974_s_at) / Fold change /veh PLEKHG5 (11737974_s_at) / RFU LRRC4B (11730491_at) / Fold change /veh LRRC4B (11730491_at) / RFU GIMAP4 (11747438_a_at) / Fold change /veh GIMAP4 (11747438_a_at) / RFU KRT8 (11758183_x_at) / Fold change /veh KRT8 (11758183_x_at) / RFU CNN1 (11734310_a_at) / Fold change /veh CNN1 (11734310_a_at) / RFU VPS37D (11726825_at) / Fold change /veh VPS37D (11726825_at) / RFU C10orf10 (11716522_x_at) / Fold change /veh C10orf10 (11716522_x_at) / RFU KIR2DL2 /// KIR2DL4 /// KIR2DL5A /// KIR2DL5B /// KIR2DS1 /// KIR2DS2 /// KIR2DS3 /// KIR2DS4 /// KIR3DL3 /// KIR3DL3 /// KIR3DS1 (11738374_at) / Fold change /veh KIR2DL2 /// KIR2DL4 /// KIR2DL5A /// KIR2DL5B /// KIR2DS1 /// KIR2DS2 /// KIR2DS3 /// KIR2DS4 /// KIR3DL3 /// KIR3DL3 /// KIR3DS1 (11738374_at) / RFU C1QL1 (11718748_at) / Fold change /veh C1QL1 (11718748_at) / RFU TMPRSS4 (11747572_a_at) / Fold change /veh TMPRSS4 (11747572_a_at) / RFU HAMP (11756126_x_at) / Fold change /veh HAMP (11756126_x_at) / RFU RNFT2 (11725882_a_at) / Fold change /veh RNFT2 (11725882_a_at) / RFU NR4A2 (11747474_a_at) / Fold change /veh NR4A2 (11747474_a_at) / RFU ABCC12 (11746883_a_at) / Fold change /veh ABCC12 (11746883_a_at) / RFU TMEM136 (11760407_x_at) / Fold change /veh TMEM136 (11760407_x_at) / RFU CLDN22 /// WWC2 (11732394_at) / Fold change /veh CLDN22 /// WWC2 (11732394_at) / RFU HLA-DPB1 (11760878_x_at) / Fold change /veh HLA-DPB1 (11760878_x_at) / RFU SPINT1 (11716480_a_at) / Fold change /veh SPINT1 (11716480_a_at) / RFU GAP43 (11754022_s_at) / Fold change /veh GAP43 (11754022_s_at) / RFU A4GNT (11735810_at) / Fold change /veh A4GNT (11735810_at) / RFU PRB3 (11715151_x_at) / Fold change /veh PRB3 (11715151_x_at) / RFU TUBB4B (11761932_at) / Fold change /veh TUBB4B (11761932_at) / RFU CAPN14 (11732068_a_at) / Fold change /veh CAPN14 (11732068_a_at) / RFU TMCC2 (11721928_a_at) / Fold change /veh TMCC2 (11721928_a_at) / RFU IRGQ (11745062_a_at) / Fold change /veh IRGQ (11745062_a_at) / RFU FAM174B (11720279_a_at) / Fold change /veh FAM174B (11720279_a_at) / RFU TMPRSS4 (11748680_a_at) / Fold change /veh TMPRSS4 (11748680_a_at) / RFU FAM212B (11763350_a_at) / Fold change /veh FAM212B (11763350_a_at) / RFU PLEKHG5 (11743358_a_at) / Fold change /veh PLEKHG5 (11743358_a_at) / RFU ZSCAN30 (11745921_a_at) / Fold change /veh ZSCAN30 (11745921_a_at) / RFU CMKLR1 (11741424_a_at) / Fold change /veh CMKLR1 (11741424_a_at) / RFU LOC101060620 /// MAPK8IP1 (11723275_at) / Fold change /veh LOC101060620 /// MAPK8IP1 (11723275_at) / RFU SPTSSB (11747773_x_at) / Fold change /veh SPTSSB (11747773_x_at) / RFU PRSS12 (11739890_at) / Fold change /veh PRSS12 (11739890_at) / RFU BIN1 (11741810_x_at) / Fold change /veh BIN1 (11741810_x_at) / RFU WNT11 (11732464_a_at) / Fold change /veh WNT11 (11732464_a_at) / RFU C10orf10 (11716521_a_at) / Fold change /veh C10orf10 (11716521_a_at) / RFU C5orf56 (11738089_at) / Fold change /veh C5orf56 (11738089_at) / RFU CYB561 (11721691_x_at) / Fold change /veh CYB561 (11721691_x_at) / RFU ANKRD19P (11752326_a_at) / Fold change /veh ANKRD19P (11752326_a_at) / RFU OR2T12 /// OR2T33 /// OR2T8 (11738714_s_at) / Fold change /veh OR2T12 /// OR2T33 /// OR2T8 (11738714_s_at) / RFU VCAN (11748164_a_at) / Fold change /veh VCAN (11748164_a_at) / RFU JSRP1 (11732532_at) / Fold change /veh JSRP1 (11732532_at) / RFU KRTAP10-11 (11738290_x_at) / Fold change /veh KRTAP10-11 (11738290_x_at) / RFU MYO3A (11730013_a_at) / Fold change /veh MYO3A (11730013_a_at) / RFU EBF3 (11725865_a_at) / Fold change /veh EBF3 (11725865_a_at) / RFU CAMK2N1 (11719241_x_at) / Fold change /veh CAMK2N1 (11719241_x_at) / RFU C5orf56 (11738088_a_at) / Fold change /veh C5orf56 (11738088_a_at) / RFU OLFML3 (11715873_a_at) / Fold change /veh OLFML3 (11715873_a_at) / RFU LOC100653217 /// NTM (11731650_a_at) / Fold change /veh LOC100653217 /// NTM (11731650_a_at) / RFU MAPK11 (11762145_a_at) / Fold change /veh MAPK11 (11762145_a_at) / RFU FIZ1 (11724087_x_at) / Fold change /veh FIZ1 (11724087_x_at) / RFU OASL (11726364_x_at) / Fold change /veh OASL (11726364_x_at) / RFU SOX15 (11748057_x_at) / Fold change /veh SOX15 (11748057_x_at) / RFU CD79A (11719716_a_at) / Fold change /veh CD79A (11719716_a_at) / RFU HIST1H1D (11736915_at) / Fold change /veh HIST1H1D (11736915_at) / RFU CASKIN2 (11723855_a_at) / Fold change /veh CASKIN2 (11723855_a_at) / RFU LOC730098 (11760151_x_at) / Fold change /veh LOC730098 (11760151_x_at) / RFU OR4N2 (11742367_at) / Fold change /veh OR4N2 (11742367_at) / RFU PRRT2 (11749266_a_at) / Fold change /veh PRRT2 (11749266_a_at) / RFU SNX32 (11753110_a_at) / Fold change /veh SNX32 (11753110_a_at) / RFU CDHR5 (11726645_a_at) / Fold change /veh CDHR5 (11726645_a_at) / RFU RCAN1 (11760418_a_at) / Fold change /veh RCAN1 (11760418_a_at) / RFU FAM167A (11723789_a_at) / Fold change /veh FAM167A (11723789_a_at) / RFU FAM26E (11764081_at) / Fold change /veh FAM26E (11764081_at) / RFU ISYNA1 (11749810_s_at) / Fold change /veh ISYNA1 (11749810_s_at) / RFU ACY1 (11761880_at) / Fold change /veh ACY1 (11761880_at) / RFU 11764098_at / Fold change /veh 11764098_at / RFU SAMD14 (11745864_x_at) / Fold change /veh SAMD14 (11745864_x_at) / RFU NPB (11741838_a_at) / Fold change /veh NPB (11741838_a_at) / RFU TMPRSS6 (11731388_a_at) / Fold change /veh TMPRSS6 (11731388_a_at) / RFU KRTAP10-2 (11738614_at) / Fold change /veh KRTAP10-2 (11738614_at) / RFU ARHGAP8 /// PRR5-ARHGAP8 (11727945_x_at) / Fold change /veh ARHGAP8 /// PRR5-ARHGAP8 (11727945_x_at) / RFU KRTAP5-7 /// NADSYN1 (11734609_at) / Fold change /veh KRTAP5-7 /// NADSYN1 (11734609_at) / RFU RASL12 (11751679_a_at) / Fold change /veh RASL12 (11751679_a_at) / RFU CDKN2B (11736163_a_at) / Fold change /veh CDKN2B (11736163_a_at) / RFU PRF1 (11729649_at) / Fold change /veh PRF1 (11729649_at) / RFU, ZNF638 /// ZNF638-IT1 / Fold change vs veh, ZNF638 /// ZNF638-IT1 / RFU, PANK3 / Fold change vs veh, PANK3 / RFU, SH3YL1 / Fold change vs veh, SH3YL1 / RFU, ZEB2 / Fold change vs veh, ZEB2 / RFU, NRIP1 / Fold change vs veh, NRIP1 / RFU, PTTG1IP / Fold change vs veh, PTTG1IP / RFU, CAPN2 / Fold change vs veh, CAPN2 / RFU, MED14 / Fold change vs veh, MED14 / RFU, SNORA58 / Fold change vs veh, SNORA58 / RFU, C1orf63 / Fold change vs veh, C1orf63 / RFU, LRRFIP1 / Fold change vs veh, LRRFIP1 / RFU, NDUFAF7 / Fold change vs veh, NDUFAF7 / RFU, SLC12A2 / Fold change vs veh, SLC12A2 / RFU, IBTK / Fold change vs veh, IBTK / RFU, ESF1 / Fold change vs veh, ESF1 / Fold change vs veh, TMEM50B / RFU, TAOK1 / Fold change vs veh, TAOK1 / RFU, ACBD3 / Fold change vs veh, ACBD3 / RFU, TMA16 / Fold change vs veh, TMA16 / RFU, RWDD3 / Fold change vs veh, RWDD3 / RFU, BCAT1 / Fold change vs veh, BCAT1 / RFU, EDEM3 / Fold change vs veh, EDEM3 / RFU, TMEM33 / Fold change vs veh, TMEM33 / RFU, WDR75 / Fold change vs veh, WDR75 / RFU, AHCTF1 / Fold change vs veh, AHCTF1 / RFU, TFRC / Fold change vs veh, TFRC / RFU, ZDHHC17 / Fold change vs veh, ZDHHC17 / RFU, NOM1 / Fold change vs veh, NOM1 / RFU, ARL8B / Fold change vs veh, ARL8B / RFU, ZBTB11 / Fold change vs veh, ZBTB11 / RFU, TAMM41 / Fold change vs veh, TAMM41 / RFU, KIAA1704 /// LOC100996395 / Fold change vs veh, KIAA1704 /// LOC100996395 / RFU, ING1 / Fold change vs veh, ING1 / RFU, TRMT61B / Fold change vs veh, TRMT61B / RFU, FUBP3 / Fold change vs veh, FUBP3 / RFU, TP53 / Fold change vs veh, TP53 / RFU, TNKS2 / Fold change vs veh, TNKS2 / RFU, ZFP14 / Fold change vs veh, ZFP14 / RFU, ACTR2 / Fold change vs veh, ACTR2 / RFU, PPP3R1 / Fold change vs veh, PPP3R1 / RFU, PIK3R1 / Fold change vs veh, PIK3R1 / RFU, HNRNPA1 / Fold change vs veh, HNRNPA1 / RFU, RNF170 / Fold change vs veh, RNF170 / RFU, ZNF28 / Fold change vs veh, ZNF28 / RFU, RNGTT / Fold change vs veh, RNGTT / RFU, OGT / Fold change vs veh, OGT / RFU, BRD1 / Fold change vs veh, BRD1 / RFU, MARS / Fold change vs veh, MARS / RFU, ZNF655 / Fold change vs veh, ZNF655 / RFU, FAHD1 / Fold change vs veh, FAHD1 / RFU, BDP1 / Fold change vs veh, BDP1 / RFU, LRRCC1 / Fold change vs veh, LRRCC1 / RFU, ARID1A / Fold change vs veh, ARID1A / RFU, ZNF146 / Fold change vs veh, ZNF146 / RFU, ZNF330 / Fold change vs veh, ZNF330 / RFU, GPN3 / Fold change vs veh, GPN3 / RFU, C9orf123 / Fold change vs veh, C9orf123 / RFU, N4BP2L2 / Fold change vs veh, N4BP2L2 / RFU, ARFIP1 / Fold change vs veh, ARFIP1 / RFU, FAM179B / Fold change vs veh, FAM179B / RFU, BCL10 / Fold change vs veh, BCL10 / RFU, UHRF1BP1L / Fold change vs veh, UHRF1BP1L / RFU, BET1 / Fold change vs veh, BET1 / RFU, CNOT2 / Fold change vs veh, CNOT2 / RFU, ZNF268 / Fold change vs veh, ZNF268 / Fold change vs veh, ZNF507 / RFU, DGCR2 / Fold change vs veh, DGCR2 / RFU, WDSUB1 / Fold change vs veh, WDSUB1 / Fold change vs veh, HSP90B1 /// MIR3652 / RFU, ADSS / Fold change vs veh, ADSS / RFU, GK / Fold change vs veh, GK / RFU, ZNF148 / Fold change vs veh, ZNF148 / RFU, TAF9 / Fold change vs veh, TAF9 / RFU, SLC1A5 / Fold change vs veh, SLC1A5 / RFU, SLMO2 / Fold change vs veh, SLMO2 / RFU, ABCC4 / Fold change vs veh, ABCC4 / RFU, LOC101060439 /// RAP1B / Fold change vs veh, LOC101060439 /// RAP1B / RFU, RFX7 / Fold change vs veh, RFX7 / RFU, GTPBP10 / Fold change vs veh, GTPBP10 / RFU, CNEP1R1 / Fold change vs veh, CNEP1R1 / RFU, BIVM-ERCC5 /// ERCC5 / Fold change vs veh, BIVM-ERCC5 /// ERCC5 / RFU, ILF3 / Fold change vs veh, ILF3 / RFU 11762660_at / Fold change /veh 11762660_at / RFU VCAN (11757783_s_at) / Fold change /veh VCAN (11757783_s_at) / RFU DDX43 (11728927_at) / Fold change /veh DDX43 (11728927_at) / RFU KRT8 (11758188_x_at) / Fold change /veh KRT8 (11758188_x_at) / RFU NKD1 (11759106_at) / Fold change /veh NKD1 (11759106_at) / RFU SRD5A1 (11742802_a_at) / Fold change /veh SRD5A1 (11742802_a_at) / RFU TPSAB1 /// TPSB2 (11721975_s_at) / Fold change /veh TPSAB1 /// TPSB2 (11721975_s_at) / RFU GSTM3 (11746129_a_at) / Fold change /veh GSTM3 (11746129_a_at) / RFU IL23R (11737362_x_at) / Fold change /veh IL23R (11737362_x_at) / RFU TMEM51 (11727254_a_at) / Fold change /veh TMEM51 (11727254_a_at) / RFU PIWIL2 (11732686_x_at) / Fold change /veh PIWIL2 (11732686_x_at) / RFU ORM1 (11744905_x_at) / Fold change /veh ORM1 (11744905_x_at) / RFU CCDC152 (11743942_at) / Fold change /veh CCDC152 (11743942_at) / RFU ECM1 (11717891_a_at) / Fold change /veh ECM1 (11717891_a_at) / RFU IL23R (11748794_a_at) / Fold change /veh IL23R (11748794_a_at) / RFU TNFAIP8L3 (11732012_x_at) / Fold change /veh TNFAIP8L3 (11732012_x_at) / RFU MBOAT4 (11741988_at) / Fold change /veh MBOAT4 (11741988_at) / RFU 11764193_at / Fold change /veh 11764193_at / RFU TMEM53 (11763286_at) / Fold change /veh TMEM53 (11763286_at) / RFU MAGEB2 (11727129_at) / Fold change /veh MAGEB2 (11727129_at) / RFU TMEM200A (11744735_a_at) / Fold change /veh TMEM200A (11744735_a_at) / RFU CCDC152 (11751479_a_at) / Fold change /veh CCDC152 (11751479_a_at) / RFU FAM211A (11726209_a_at) / Fold change /veh FAM211A (11726209_a_at) / RFU RGS16 (11746705_a_at) / Fold change /veh RGS16 (11746705_a_at) / RFU VCAN (11755009_s_at) / Fold change /veh VCAN (11755009_s_at) / RFU RHOB (11743442_s_at) / Fold change /veh RHOB (11743442_s_at) / RFU RGS16 (11720943_a_at) / Fold change /veh RGS16 (11720943_a_at) / RFU RGS16 (11720944_at) / Fold change /veh RGS16 (11720944_at) / RFU, VPS4B / Fold change vs veh, VPS4B / RFU, CREB1 / Fold change vs veh, CREB1 / RFU, DNAJC13 / Fold change vs veh, DNAJC13 / RFU, GNAQ / Fold change vs veh, GNAQ / RFU, CDK5R1 / Fold change vs veh, CDK5R1 / RFU, ZRANB3 / Fold change vs veh, ZRANB3 / RFU, CUL4A / Fold change vs veh, CUL4A / RFU, CCNY / Fold change vs veh, CCNY / RFU, UFL1 / Fold change vs veh, UFL1 / RFU, COG3 / Fold change vs veh, COG3 / RFU, DIAPH2 / Fold change vs veh, DIAPH2 / RFU, SKA2 / Fold change vs veh, SKA2 / RFU, AFF3 / Fold change vs veh, AFF3 / RFU, LMF1 / Fold change vs veh, LMF1 / RFU, IPO11 / Fold change vs veh, IPO11 / RFU, DFFB / Fold change vs veh, DFFB / RFU, FOXP1 / Fold change vs veh, FOXP1 / RFU, CARD8 / Fold change vs veh, CARD8 / RFU, STRN3 / Fold change vs veh, STRN3 / RFU, ADK / Fold change vs veh, ADK / RFU, RASSF2 / Fold change vs veh, RASSF2 / RFU, WIPF1 / Fold change vs veh, WIPF1 / RFU, LARP1B / Fold change vs veh, LARP1B / RFU, RASA1 / Fold change vs veh, RASA1 / RFU, RB1 / Fold change vs veh, RB1 / RFU, PPFIA1 / Fold change vs veh, PPFIA1 / RFU, MAT2A / Fold change vs veh, MAT2A / RFU, CCT5 / Fold change vs veh, CCT5 / RFU, WDR92 / Fold change vs veh, WDR92 / RFU, CUX1 / Fold change vs veh, CUX1 / RFU, TTC7A / Fold change vs veh, TTC7A / RFU, TMEM135 / Fold change vs veh, TMEM135 / RFU, DEPTOR / Fold change vs veh, DEPTOR / RFU, CPM / Fold change vs veh, CPM / RFU, DNAJB6 / Fold change vs veh, DNAJB6 / RFU, CACNA2D3 / Fold change vs veh, CACNA2D3 / RFU, DTX4 / Fold change vs veh, DTX4 / RFU, TFCP2 / Fold change vs veh, TFCP2 / RFU, GMCL1 /// GMCL1P1 / Fold change vs veh, GMCL1 /// GMCL1P1 / RFU, AEBP2 / Fold change vs veh, AEBP2 / RFU, SNHG1 /// SNORD22 /// SNORD25 /// SNORD26 /// SNORD27 /// SNORD28 /// SNORD29 /// SNORD31 / Fold change vs veh, SNHG1 /// SNORD22 /// SNORD25 /// SNORD26 /// SNORD27 /// SNORD28 /// SNORD29 /// SNORD31 / Fold change (Aza/veh), C12orf56 (ProbeSet 11735607_a_at) / Fold change (ACY-1035/veh), C12orf56 (ProbeSet 11735607_a_at) / Fold change (Aza/veh), FGFR1OP (ProbeSet 11751329_s_at) / Fold change (ACY-1035/veh), FGFR1OP (ProbeSet 11751329_s_at) / Fold change (Aza/veh), VPS36 (ProbeSet 11739960_a_at) / Fold change (ACY-1035/veh), VPS36 (ProbeSet 11739960_a_at) / RFU SYPL1 (11715823_x_at) / Fold change /veh SYPL1 (11715823_x_at) / RFU IGFBP7 (11715501_s_at) / Fold change /veh IGFBP7 (11715501_s_at) / RFU REEP3 (11722064_at) / Fold change /veh REEP3 (11722064_at) / RFU IGLL1 (11728026_x_at) / Fold change /veh IGLL1 (11728026_x_at): dose or concentration left out as unconfirmed
Settings: MV-4-11 cells, 48 hours

SMILES: Nc1ccc(-c2cccs2)cc1NC(=O)c1ccc2c(c1)cc(C1CC1)n2CCN1CCOCC1 [ACY-1035]
- Fold change /veh FAM167A (11723789_a_at): 1.14
